Measured values from PMC9849758, “Chemically diverse activity-based probes with unexpected inhibitory mechanisms targeting trypsin-like serine proteases” (Frontiers in Chemistry, 2023).
Entries after “also recorded” stand apart in the source; their conditions may differ. Counter-ions that a name gives are not always drawn.

Experiments:
Type in all cases: biochemical
β-tryptase [1] = biological target: T1, β-tryptase (Homo sapiens, UniProt P20231); test: Kinetic progress curves (kapp, K1, KI*, mechanism); design: purchased EnzoLife Sciences; settings: for β-tryptase kapp: apparent second-order rate constant from progress curves; for β-tryptase kapp / Ki: mean ± SD; for β-tryptase mechanism of inhibition: defined by the progress curves: slow-binding (Rev.) or irreversible (Irrev.)
T1 sequence (P20231 31-275): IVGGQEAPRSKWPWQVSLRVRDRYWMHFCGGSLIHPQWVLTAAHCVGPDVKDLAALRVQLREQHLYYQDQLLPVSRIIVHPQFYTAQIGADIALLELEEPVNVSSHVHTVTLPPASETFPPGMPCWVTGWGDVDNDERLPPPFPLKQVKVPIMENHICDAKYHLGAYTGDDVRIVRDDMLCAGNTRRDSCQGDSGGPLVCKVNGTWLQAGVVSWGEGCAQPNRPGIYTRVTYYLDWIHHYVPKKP
Method: (§1) Because the compounds described in this paper were previously described as irreversible inhibitors, the IC50 value is inversely correlated with the second-order rate constant of inactivation. For a simple pseudo-first-order inactivation process, the activity after incubation with inhibitor (vi) varies with the inhibitor concentration (i), as described in the following equation: vi=v0·e^−kit where v0 is the activity in the absence of an inhibitor, k is the second-order rate constant of inactivation, and t is the time. The inactivation rate constant was determined from the time course of inhibition.
(§2) Kinetic assays were performed in the following manner. The inhibitor was mixed with the substrate, and the buffer solution with the enzyme was added at the time zero. The progress curves show the release of pNA or AMC as a function of time. Initially, no inhibitor is bound to the enzyme, and the tangent to the progress curve (dA/dt) is proportional to the free enzyme concentration. The free enzyme concentration decreases over time due to inhibitor binding kinetics, as described above. Progress curves were recorded in pseudo-first-order conditions ([I]0>>[E]0) and with less than 10% conversion of the substrate during the entire time course. In these conditions, dA/dt decreases exponentially with time. The progress curves were fitted with the integrated rate equation with GraFit7 to yield a value for kobs, a pseudo-first-order rate constant. At=Ao+vs∙t+vi−vs∙1−e^−kobs∙t/kobs where At is the absorbance at time t, A0 is the absorbance at time zero, vi is the initial rate and vs is the velocity at the steady-state.
(§3) The apparent second-order rate constant (kapp) was calculated from the slope of the linear part of the plot of kobs vs. the inhibitor concentration ([I]0). In the case of competition between the inhibitor and the substrate, kapp is smaller than the “real” second-order rate constant k discussed above because a certain fraction of the enzyme is present as an enzyme-substrate complex. kapp depends on the substrate concentration used in the experiment, as described by [Lambeir et al. (1996)].
(§4) The apparent equilibrium constants were obtained from the following equations, vi/vo=1/1+I/K1; vS/vo=1/1+I/KI* where vi is the initial rate, vs is the steady-state velocity and vo is the uninhibited initial rate.

β-tryptase [2] = biological target: T1, β-tryptase; test: Jump dilution, determination of inhibition type; design: purchased EnzoLife Sciences; settings: inhibitor at 10 times IC50, 15 min, diluted 10-fold or 100-fold; Rev./Irrev.
Method: The dissociation of the enzyme-inhibitor complex was monitored by substrate hydrolysis over time ([Joossens et al., 2006]).
Because ABPs are designed to be irreversible serine protease inhibitors, the IC50 is exclusively used as a first discriminatory evaluation. When an inhibitor is irreversible, its IC50 value not only depends on the substrate and enzyme concentration but also on the time of incubation with the enzyme before the reaction is started by adding the substrate. […] The progress curve in the presence of an irreversible inhibitor will show final velocities equal to zero (Figure 6C). In contrast, for a reversible inhibitor, progress curves have a non-zero final steady-state velocity (Figure 6A) ([McWhirter, 2021]). To corroborate the inhibitory mechanism of the compounds, jump-dilution assays were performed. These use an inhibitor concentration of 10-fold the IC50 for the incubation, and a posteriori, the reaction mixture is diluted 10-fold or 100-fold before adding the substrate. In the case of an irreversible inhibitor, enzymatic activity is not regained (Figure 6D), whereas, in the case of a reversible compound, a slow release of the inhibitor and a gradual increase of the enzymatic activity rate is observed (Figure 6B) ([Copeland, 2013]; [McWhirter, 2021]). The jump-dilution assays confirmed the behavior described by the progress curves.
2.2.2 Jump dilution results
Supplementary Table 2. Jump dilution of selected alkyne and desthiobiotin probes against a panel of trypsin-like serine proteases. […]
# R R DtBa 3 tryptase Thrombin uPA CatG
32b H Alk Irrev. Irrev. Rev. Irrev. Rev.
45b DtB Irrev. Irrev. Rev. N.D. N.D.
33b Alk Irrev. Irrev. Rev. Irrev. Rev.
46b Cl DtB Irrev. Irrev. Rev. N.D. N.D.
34b H Alk Rev. Rev. Rev. Irrev. Rev.
50b DtB Rev. Rev. Rev. Irrev. Rev.
35b Alk Rev. Rev. Rev. Irrev. Rev.
52b NHCOMe DtB Rev. Rev. Rev. Irrev. Rev.
36b Alk Rev. Rev. Rev. Irrev. Rev.
54b Cl DtB Rev. Rev. Rev. Irrev. Rev.
37b Alk Irrev. Irrev. N.D. Irrev. Irrev.
55b H DtB Irrev. Irrev. N.D. Irrev. Irrev.
38b Alk Irrev. Irrev. N.D. Irrev. Irrev.
56b NHCOMe DtB Irrev. Irrev. N.D. Irrev. Irrev.
39b Alk Irrev. Irrev. N.D. Irrev. Rev.
57b Cl DtB Irrev. Irrev. N.D. Irrev. Rev.
41b H Alk Irrev. Irrev. Irrev. N.D. N.D.
31b Pro-Lys H Alk Irrev. Irrev. Irrev. Irrev. N.D. a Alk: ABP precursor bearing an alkyne; DtB: desthiobiotin probe b Panel of serine proteases abbreviations: urokinase plasminogen activator (uPA), cathepsin G (catG) N.D.: IC50 is greater than 10µM, and jump dilution was not performed
2.2.3 Progress curves and Jump dilution experiments
Kinetic assays were performed in the following manner. The inhibitor was mixed with the substrate, and the buffer solution with the enzyme was added at the time zero. The progress curves show the release of para-nitroaniline (pNA) or 7-amino-4-methyl coumarin (AMC) as a function of time.
To monitor the dissociation of the inhibitor-enzyme, aliquots of the enzyme were incubated at 37 °C without and with the inhibitor at a concentration 10 times higher than its IC 50. The enzyme […]
min, the aliquots were diluted 10-fold or 100-fold into the substrate concentration and assay buffer used for the IC50 determination. The dissociation of the enzyme-inhibitor complex was monitored by substrate hydrolysis over time. Blue lines represent the control where no inhibitor was present. Pink lines represent the assay with inhibitor.

uPA = biological target: T2, uPA (Homo sapiens, UniProt P00749); test: Kinetic progress curves (kapp, mechanism); settings: for uPA kapp: apparent second-order rate constant from progress curves, mean ± SD; for uPA mechanism of inhibition: defined by the progress curves: slow-binding (Rev.) or irreversible (Irrev.)
T2 construct: purchased HYPHEN BioMed
Method: as §1, §2, §3, §4

CatG = biological target: T3, CatG (Homo sapiens, UniProt P08311); test: Kinetic progress curves (kapp, mechanism); design: Cathepsin G (cathepsin G human neutrophil, Sigma-Aldrich); purchased Sigma-Aldrich; host or cells: human neutrophil; settings: for CatG kapp: apparent second-order rate constant from progress curves, mean ± SD; for CatG mechanism of inhibition: defined by the progress curves: slow-binding (Rev.) or irreversible (Irrev.)
T3 sequence (P08311 21-255): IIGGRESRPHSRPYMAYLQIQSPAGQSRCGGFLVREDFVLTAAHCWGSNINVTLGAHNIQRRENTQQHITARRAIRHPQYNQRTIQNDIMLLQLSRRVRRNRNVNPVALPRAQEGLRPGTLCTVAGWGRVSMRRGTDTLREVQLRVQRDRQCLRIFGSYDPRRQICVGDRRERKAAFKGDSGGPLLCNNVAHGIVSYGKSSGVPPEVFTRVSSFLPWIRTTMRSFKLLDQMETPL
Method: as §1, §2, §3, §4

[3] = β-tryptase K1, apparent equilibrium constant of the first step of slow-binding
[4] = β-tryptase KI*, apparent equilibrium constant of the overall process

## C[C@@H]1NC(=O)N[C@@H]1CCCCCC(=O)NCCOCCOCCOCCn1cc(CCCOC(=O)NC(CCCNC(=N)N)P(=O)(Oc2ccccc2)Oc2ccccc2)nn1 (some centres unmarked) [45b]
β-tryptase [1]
  β-tryptase kapp: 237 ± 42 M⁻¹ s⁻¹
  β-tryptase mechanism of inhibition: Irrev.
β-tryptase [2]
  β-tryptase jump dilution result: Irrev.

## CC(=O)Nc1ccc(OP(=O)(Oc2ccc(NC(C)=O)cc2)C(NC(=O)OCCCc2cn(CCOCCOCCOCCNC(=O)CCCCC[C@H]3NC(=O)N[C@H]3C)nn2)c2ccc(NC(=N)N)cc2)cc1 (some centres unmarked) [56b]
uPA
  uPA kapp: 62 ± 2 M⁻¹ s⁻¹
  uPA mechanism of inhibition: Irrev.
β-tryptase [1]
  β-tryptase kapp: 321 ± 2 M⁻¹ s⁻¹
  β-tryptase mechanism of inhibition: Irreversible; also recorded: Irrev
β-tryptase [2]
  β-tryptase jump dilution result: Irrev; also recorded: Irreversible
CatG
  CatG kapp: 420 ± 37 M⁻¹ s⁻¹
  CatG mechanism of inhibition: Irrev.

## C#CCCCOC(=O)NC(c1ccc(NC(=N)N)cc1)P(=O)(Oc1ccc(NC(C)=O)cc1)Oc1ccc(NC(C)=O)cc1 (centres unmarked) [38b, Pent-4-yn-1-yl ((bis(4-acetamidophenoxy)phosphoryl)(4-guanidinophenyl)methyl) carbamate]
uPA
  uPA kapp: 215 ± 7 M⁻¹ s⁻¹
  uPA mechanism of inhibition: Irrev.
β-tryptase [1]
  β-tryptase kapp: 20 × 10^2 ± 54 M^−1 s^−1
  β-tryptase mechanism of inhibition: Irrev.
β-tryptase [2]
  β-tryptase jump dilution result: Irrev.
CatG
  CatG kapp: 14 × 10^2 ± 52 M^−1 s^−1
  CatG mechanism of inhibition: Irrev.

## C[C@@H]1NC(=O)N[C@@H]1CCCCCC(=O)NCCOCCOCCOCCn1cc(CCCOC(=O)NC(c2ccc(NC(=N)N)cc2)P(=O)(Oc2ccc(Cl)cc2)Oc2ccc(Cl)cc2)nn1 (some centres unmarked) [57b]
uPA
  uPA kapp: 25 × 10^2 ± 11 M^−1 s^−1
  uPA mechanism of inhibition: Irrev.
β-tryptase [1]
  β-tryptase kapp: 65 × 10^2 ± 1,203 M^−1 s^−1
  β-tryptase mechanism of inhibition: Irrev.
β-tryptase [2]
  β-tryptase jump dilution result: Irrev.
CatG
  CatG kapp: 11 × 10^2 ± 117 M^−1 s^−1
  CatG mechanism of inhibition: reversibly and Rev.

## C[C@@H]1NC(=O)N[C@@H]1CCCCCC(=O)NCCOCCOCCOCCn1cc(CCCOC(=O)NC(Cc2ccc(NC(=N)N)cc2)P(=O)(Oc2ccccc2)Oc2ccccc2)nn1 (stereo partly drawn) [50b, 3-(1-(18-((4R,5S)-5-methyl-2-oxoimidazolidin-4-yl)-13-oxo-3,6,9-trioxa-12-azaoctadecyl)-1H-1,2,3-triazol-4-yl)propyl (1-(diphenoxyphosphoryl)-2-(4-guanidinophenyl)ethyl)carbamate trifluoroacetate salt]
uPA
  uPA kapp: 33000 ± 12000 M⁻¹ s⁻¹
  uPA mechanism of inhibition: Irrev.
β-tryptase [1]
  β-tryptase kapp: 32 × 10^2 ± 613 M^−1 s^−1
  β-tryptase mechanism of inhibition: Rev.
β-tryptase [1]; [3]
  Ki: 3280 ± 500 nM
β-tryptase [1]; [4]
  Ki: 410 ± 30 nM
β-tryptase [2]
  β-tryptase jump dilution result: Rev.
CatG
  CatG mechanism of inhibition: * ^d Rev.

## C[C@@H]1NC(=O)N[C@@H]1CCCCCC(=O)NCCOCCOCCOCCn1cc(CCCOC(=O)NC(CCCNC(=N)N)P(=O)(Oc2ccc(Cl)cc2)Oc2ccc(Cl)cc2)nn1 (some centres unmarked) [46b]
uPA
  uPA kapp: 940 ± 37 M⁻¹ s⁻¹
  uPA mechanism of inhibition: Irrev.
β-tryptase [1]
  β-tryptase kapp: 75 × 10^2 ± 1475 M^−1 s^−1
  β-tryptase mechanism of inhibition: Irrev.
β-tryptase [2]
  β-tryptase jump dilution result: Irrev.

## C[C@@H]1NC(=O)N[C@@H]1CCCCCC(=O)NCCOCCOCCOCCn1cc(CCCOC(=O)NC(Cc2ccc(NC(=N)N)cc2)P(=O)(Oc2ccc(Cl)cc2)Oc2ccc(Cl)cc2)nn1 (some centres unmarked) [54b]
uPA
  uPA kapp: 230000 ± 36000 M⁻¹ s⁻¹
  uPA mechanism of inhibition: Irrev.
β-tryptase [1]
  β-tryptase mechanism of inhibition: reversible slow-binding mechanism; also recorded: * ^d Rev
β-tryptase [1]; [3]
  Ki: 130 ± 30 nM
β-tryptase [1]; [4]
  Ki: 20 ± 1 nM
β-tryptase [2]
  β-tryptase jump dilution result: Rev.
CatG
  CatG mechanism of inhibition: * ^d Rev.

## C#CCCCOC(=O)NC(C1CCN(C(=N)N)CC1)P(=O)(Oc1ccccc1)Oc1ccccc1 (centres unmarked) [41b]
β-tryptase [1]
  β-tryptase kapp: 27 ± 2 M⁻¹ s⁻¹
  β-tryptase mechanism of inhibition: irreversible inhibition; also recorded: Irrev
β-tryptase [2]
  β-tryptase jump dilution result: Irrev.
